Source: patent US20090118249A1, “DHEAS INHALATION COMPOSITIONS” (priority 2007, published 2009)

Test: Solubility in aqueous solution
Format: physicochemical
Text: In some cases, the DHEAS will associate with or form a complex with the divalent cation which is less soluble than the DHEAS sodium salt.

In the case of “Dehydroepiandrosterone sulfate [DHEAS-Na]”, the solubility is reported as “about 17 mg/ml”.
